Measurements: article PMC10979478, “Deciphering the Biosynthesis and Physiological Function of 5-Methylated Pyrazinones Produced by Myxobacteria” (ACS Central Science, 2024)
Residues, ends and D or L forms follow the SMILES beside them. *: point of attachment. Boc = CC(C)(C)OC(=O)*

Assays:
SDU70-ΔcorA-corB = test: Agglutination assay of corB-overexpression mutant; assay type: cell-based, Corallococcus exiguus; conditions: for morphology on induction: 5 mg/L; for clumping: as high as 50 mg/L
Description: (§1) The agglutination assay basically followed the method described by Velicer.[62] Briefly, DK1622 strains were cultured in CTT medium, whereas SDU70 strains were cultured in VY/2 medium. The aggregation-inducing compounds were added together with the initial inocula. After 3 days of growth, ∼2 mL of liquid cultures (in logarithmic growth stage) were transferred into cuvettes. Samples were left static for 15 min to visualize the clumping phenomenon. To plot the agglutination curves, the absorbance readings (600 nm) were measured on a UV-8000 spectrophotometer at differential intervals within 4 h. Decreasing the absorbance represents the settling of agglutinated cell clumps. Data points are the means of three replicates per strain.

SDU70-corB = test: Agglutination assay of corB-overexpression mutant; assay type: cell-based, Corallococcus exiguus; conditions: as high as 50 mg/L
Description: as §1

DK1622-corB = test: Agglutination assay of corB-overexpression mutant; assay type: cell-based, Myxococcus xanthus; conditions: for agglutination induced by exogenous addition, in corB-overexpressing strain: 5 mg/L; for threshold concentration causing visible flocculation of DK1622-corB relative to DK1622-wt: 1 or 1b′ (Figures S12–S14)
Description: as §1

DK1622-wt [1] = test: Agglutination assay in liquid culture; assay type: cell-based, Myxococcus xanthus; conditions: for dose dependence of flocculation/agglutination: 1~50 mg/L; for ability to induce agglutination (SAR): each compound added at 5 mg/L
Description: as §1

SDU70-ΔcorA = test: Agglutination assay in liquid culture; assay type: cell-based, Corallococcus exiguus; conditions: for dose dependence of flocculation/agglutination: 1~50 mg/L; for ability to induce agglutination (SAR): each compound added at 5 mg/L
Description: as §1

[2] = Cytotoxic activity on human cell lines; assay type: cell-based; conditions: KYSE410 esophageal squamous carcinoma cells, mean value of three replicates
Acinetobacter baumannii = test: Antibacterial assay, agar diffusion method; assay type: cell-based; conditions: 50 μg/disc
Description: (§2) The white needle crystals of 2 were obtained from MeOH solvent by slowly volatilizing in a glass vial under ambient condition. The X-ray diffraction measurement of crystals basically followed our previously published method.1 The crystallographic data for 2 was summarized […]6, and deposited in CCDC database under the access number 2278050. Antibacterial Assay. The antibacterial assay was performed by agar diffusion method.2 Single colony of Gram-positive bacteria Staphylococcus aureus, Gram-negative bacterium Acinetobacter baumannii, and fungus Candida albicans were picked and inoculated into 8 mL of LB liquid medium for overnight growth at 37 °C, respectively. Next day, the cultures were 100-fold diluted to 1x10^7 CFU/mL with fresh LB liquid medium, to grow at 37 °C until OD600 0.4~0.6. Compounds 1 and 2 were dissolved […] The disks were then placed onto an agar plate containing a soft agar overlay with the indicator microorganisms. Kanamycin (for S. aureus) and apramycin (for C. albicans and E. coli) at a concentration of 1 mg/mL were used as positive controls, and the solvent methanol as the negative control. […] Protease inhibition assay. […] MES, 5 mM DTT, pH 5.5) was detected by proteolysis of fluorescent substrate z-FR-AMC. Enzyme was pre- incubated with a gradient concentration (0~500 μM) of compounds for 60 min at 37 °C in a black 96-well plate. Then, 20 μM of z-FR-AMC was added to each well to make up 200 μ[…] , and the reaction continued for another 30 min. The absorbance was measured by microplate reader (Spectra max GEMINI XPS, excitation wavelength 380 nm, emission wavelength 460 nm). The protease inhibitor E-64 was used as positive control and DMSO was the negative control. All the experiments were completed in triplicate. Enzymatic cleavage of 1 and 1b' using CorB. The reaction was conducted in a 50 μL system comprising of 20 mM Tris-HCl buffer (pH 7.5), 150 mM NaCl, 0.22 mM CorB, and 0.05 mg 1, or 1b' (dissolved in DMSO) respectively. Tris-HCl buffer was used as a negative control, and all experiments were repeated in triplicates. The reactions were incubated at 37 °C for 12 hours and then terminated by adding 50 μL of MeOH. The mixture was centrifuged at 12000 rpm for 20 minutes, and the supernatant was subsequently analyzed HPLC-DAD. MST assay. The purified CorB was mixed with an equal volume of RED-tris-NTA dye solution and incubated in the dark for 30 min, centrifuged at 12000 rpm, 4 °C for 10 min. Then, 10 μL of the CorB-dye complex was mixed with an equal volume of test compound solution ranging from 15.2 μM to 0.5 mM. The resulting samples were collected by capillary tubes and analyzed by Microscale Thermophoresis (Monolith NT.115). 4

Staphylococcus aureus = test: Antibacterial assay, agar diffusion method; assay type: cell-based; conditions: 50 μg/disc
Description: as §2

[3] = Cytotoxic activity on human cell lines; assay type: cell-based; conditions: PC3 prostatic carcinoma cells, mean value of three replicates
[4] = Cytotoxic activity on human cell lines; assay type: cell-based; conditions: HepG2 hepatocarcinoma cells, mean value of three replicates
four human cell lines = test: Antiproliferative activity, summary statement; assay type: cell-based; conditions: four human cell lines (Table S2)
[5] = Cytotoxic activity on human cell lines; assay type: cell-based; conditions: A549 lung carcinoma cells, mean value of three replicates
Candida albicans = test: Agar diffusion assay against fungus; assay type: cell-based; conditions: 50 μg/disc
Description: (§3) The white needle crystals of 2 were obtained from MeOH solvent by slowly volatilizing in a glass vial under ambient condition. The X-ray diffraction measurement of crystals basically followed our previously published method.1 The crystallographic data for 2 was summarized […]6, and deposited in CCDC database under the access number 2278050. Antibacterial Assay. The antibacterial assay was performed by agar diffusion method.2 Single colony of Gram-positive bacteria Staphylococcus aureus, Gram-negative bacterium Acinetobacter baumannii, and fungus Candida albicans were picked and inoculated into 8 mL of LB liquid medium for overnight growth at 37 °C, respectively. Next day, the cultures were 100-fold diluted to 1x10^7 CFU/mL with fresh LB liquid medium, to grow at 37 °C until OD600 0.4~0.6. Compounds 1 and 2 were dissolved […] The disks were then placed onto an agar plate containing a soft agar overlay with the indicator microorganisms. […] MES, 5 mM DTT, pH 5.5) was detected by proteolysis of fluorescent substrate z-FR-AMC. […] The absorbance was measured by microplate reader (Spectra max GEMINI XPS, excitation wavelength 380 nm, emission wavelength 460 nm). […] The mixture was centrifuged at 12000 rpm for 20 minutes, and the supernatant was subsequently analyzed HPLC-DAD. […] The resulting samples were collected by capillary tubes and analyzed by Microscale Thermophoresis (Monolith NT.115). […]

cathepsin L = cathepsin L (Homo sapiens, UniProt P07711); test: Protease inhibition assay (z-FR-AMC proteolysis); assay type: biochemical; conditions: compounds 0~500 μM, pre-incubated 60 min at 37 °C, pH 5.5; read-out: inhibition activity against protease cathepsin L, IC50
Sequence of cathepsin L (P07711 114-333, species assumed): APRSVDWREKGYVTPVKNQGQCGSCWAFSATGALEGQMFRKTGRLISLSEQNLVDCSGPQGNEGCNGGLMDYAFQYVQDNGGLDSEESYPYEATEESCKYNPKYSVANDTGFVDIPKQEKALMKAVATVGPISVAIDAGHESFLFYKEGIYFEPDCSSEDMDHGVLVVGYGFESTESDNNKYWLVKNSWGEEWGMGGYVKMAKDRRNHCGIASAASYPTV
Description: as §3

DK1622-wt [6] = test: Trypan blue binding assay of EPS production; assay type: cell-based, Myxococcus xanthus; conditions: DK1622-wt supplemented with 5 mg/L
Description: Exopolysaccharide (EPS) production was measured according to the method published by Black et al.[64] Briefly, wild type and mutant strains of DK1622 were inoculated in liquid CTT medium and incubated for 24 h at 30 °C and 200 rpm. The cells grown to the logarithmic phase were collected by centrifugation, and the supernatants were discarded. Cells were resuspended and adjusted to a density of 5 × 10^8 CFU/mL with TPM buffer (1.97 g/L MgSO4·7H2O, 1 M Tris-HCl, 10 mL 0.1 M PBS, pH 7.6). Next, the cell suspension was evenly mixed with an equal volume of Trypan Blue dye solution (150 μg/mL), and TPM buffer was used as a blank control. The supernatant was centrifuged at 12000 rpm for 5 min, and 200 μL was used for the absorbance measurement at 585 nm. Each experiment was performed in triplicate.

DK1622 = test: Confocal laser scanning microscopy of cells and EPS; assay type: cell-based, Myxococcus xanthus; conditions: DK1622+1
Description: The microscopic observation of SDU70 and DK1622 basically followed our recently published methods.[63]Scanning electron microscopy (SEM): DK1622 and SDU70 strains (wild type and mutants) were grown to logarithmic stage. The cells were washed three times with 1× PBS buffer and then fixed overnight at 4 °C in 2.5% glutaraldehyde solution. Samples were prepared using the standard ethanol dehydration method,[62] and observed by QUANTA FEG250 scanning electron microscope (Thermo Fisher Scientific, USA). Confocal laser scanning microscopy (CLSM): DK1622 strains were grown in CTT liquid medium for 24 h, while SDU70 strains were grown in VY/2 medium for 72 h. The presence of EPS, eDNA dead cells, and alive cells were labeled with Alexa 350-labeled wheat germ lectin (WGA), SYTOX Orange, and STYO 9, respectively. The images were taken on LSM 900 CLSM (Zeiss, Germany), using 63× oil immersed objective lens. The CLSM images were captured by ZEN software (Zeiss, Germany) and exported by using ImageJ software.

CorB = test: MST assay of CorB to coralinone A; assay type: binding, Corallococcus exiguus SDU70; conditions: 15.2 μM to 0.5 mM test compound
Description: as §3

SMILES | morphology on induction (SDU70-ΔcorA-corB) | clumping (SDU70-ΔcorA-corB) | clumping (SDU70-corB) | agglutination induced by exogenous addition, in corB-overexpressing strain (DK1622-corB) | threshold concentration causing visible flocculation of DK1622-corB relative to DK1622-wt (DK1622-corB) | dose dependence of flocculation/agglutination (DK1622-wt [1]) | ability to induce agglutination (SAR) (DK1622-wt [1]) | dose dependence of flocculation/agglutination (SDU70-ΔcorA) | ability to induce agglutination (SAR) (SDU70-ΔcorA) | IC50 [2] [µM] | growth inhibition (Acinetobacter baumannii) | growth inhibition (Staphylococcus aureus) | IC50 [3] [µM] | IC50 [4] [µM] | antiproliferative activities (four human cell lines) | IC50 [5] [µM] | growth inhibition (Candida albicans) | also measured
CC(=O)[C@@H](NC(=O)[C@H](CC(C)C)NC(=O)OC(C)(C)C)C(C)C [1b′] | maintained the dispersed morphology | did not clump | did not clump | substantially abated agglutination | 3–4 times | dose-dependent manner | effective | dose-dependent manner | effective |  |  |  |  |  |  |  |  | 
CC[C@H](C)c1[nH]c(=O)c(CC(C)C)nc1C [compound 2, coralinone B] |  |  |  |  |  |  |  |  |  | 312 | No growth inhibition | No growth inhibition | 432 | 504 | Neither 1 nor 2 showed any significant antiproliferative activities | 145 | No growth inhibition | 
CC(C)C[C@H](NC(=O)OC(C)(C)C)C(=O)N[C@H](C=O)C(C)C [10b′] (Boc-Leu-Val-aldehyde) |  |  |  |  |  |  |  |  |  |  |  |  |  |  |  |  |  | IC50 (cathepsin L): 0.23 µM
CC(=O)O[C@@]12CO[C@@H]1C[C@H](O)[C@@]1(C)C(=O)[C@H](O)C3=C(C)[C@@H](OC(=O)[C@H](O)[C@@H](NC(=O)OC(C)(C)C)c4ccccc4)C[C@@](O)([C@@H](OC(=O)c4ccccc4)[C@H]21)C3(C)C [Docetaxel, reference compound] |  |  |  |  |  |  |  |  |  | 17.8 |  |  | 71.9 | 10.3 |  | 33.1 |  | 
Cc1nc(CC(C)C)c(=O)[nH]c1C(C)C [compound 1, coralinone A] | maintained the dispersed morphology | did not clump | did not clump | substantially abated agglutination | 3–4 times | dose-dependent manner | effective | dose-dependent manner | effective | 463 | No growth inhibition | No growth inhibition | 796 | 892 | Neither 1 nor 2 showed any significant antiproliferative activities | 383 | No growth inhibition | EPS production (DK1622-wt [6]): cumulation of EPS; EPS production (Alexa 350-WGA blue signal in Merge photos) (DK1622): higher production of EPS; binding to CorB (MST) (CorB): did not disturb CorB-dye binding; flocculation at 5 mg/L in dose series (DK1622-wt [1]; 5 mg/L): severe flocculation; flocculation on exogenous supplementation (DK1622-wt [1]; 5 mg/L, liquid culture): led to flocculation; concentration that started to be active in causing flocculation (DK1622-wt [1]; dose series 1~50 mg/L): 2 mg/L; flocculation at 5 mg/L in dose series (SDU70-ΔcorA; 5 mg/L): severe flocculation; restoration of pellet morphogenesis by chemical complementation (SDU70-ΔcorA; 5 mg/L, shaken liquid culture): restored; concentration that started to be active in causing flocculation (SDU70-ΔcorA; dose series 1~50 mg/L): 2 mg/L
